Where a SMILES comes first, the peptide text is derived from it.

The target in this assay is T1, porcine pancreas PLA2 (Sus scrofa, UniProt P00592).
T1 construct: purchased Sigma Chemical Co. P6534; host or cells: porcine pancreas
The experiment in a line: PLA2-inhibiting activity (release of [1-14C] arachidonic acid from labelled phosphatidylcholine). The note with it: for Inhibition ratio (Inhibition rate of test compound/Inhibition rate of Compound (IV)): Amount of sample: 100 mg, relative to Compound (IV) = 1.00. The assay is classed as biochemical. The method, then:
A test compound was dissolved in 280 μl of 0.1M Tris-hydrochloride buffer (pH 8.8) containing 10 mM calcium chloride. To the solution was added a solution of 20 ng of porcine pancreas PLA2 (Sigma Chemical Co., catalog No. P6534) in 10 μl of the buffer having the same composition as above, followed by incubation at 37° C. for 10 minutes. To the resulting mixture was added a solution of 0.1 μCi of α-palmitoyl-β[1-^14 C] arachidonylphosphatidylcholine (54 μCi/μmol, NEN Research Products Co.) in 10 μl of the same buffer as above wherein micelles were formed, followed by incubation at 37° C. for 10 minutes. Then, 3 ml of a Dale reagent solution [2-propanol :n-heptane :1M sulfuric acid=40:10:1 v/v mixture; Methods in Enzymology 14, 167 (1969)] was added to stop the reaction, and 1.5 ml of n-heptane and 1 ml of water were added, followed by shaking. Radioactivity of the free [1-^14 C] arachidonic acid extracted to the heptane layer was measured. The value of this specific radioactivity is referred to as "a". Further, "b" and "c" refer to the specific radioactivity of the heptane layer obtained by adding the same amount of the buffer in place of the test compound solution and that of the heptane layer obtained by adding the same amount of the buffer in place of the test compound and PLA2, respectively. The inhibition rate (x) was calculated by the following equation: [formula]

T1 sequence (P00592 23-146): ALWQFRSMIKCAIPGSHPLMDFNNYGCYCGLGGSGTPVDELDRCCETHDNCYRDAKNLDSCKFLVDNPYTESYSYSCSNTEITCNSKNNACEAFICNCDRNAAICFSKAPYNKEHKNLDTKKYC

In the case of `CC[C@H](C)[C@H](N)C(=O)N[C@@H](CCC(=O)O)C(=O)N[C@H](C(=O)N[C@@H](CC(C)C)C(=O)N[C@@H](C)C(=O)N[C@@H](CO)C(=O)N[C@@H](CCCNC(=N)N)C(=O)N[C@H](C(=O)N[C@@H](CC(N)=O)C(=O)N[C@@H](CCCCN)C(=O)N[C@@H](CCC(=O)O)C(=O)N[C@H](C(=O)N[C@@H](CCCNC(=N)N)C(=O)N[C@@H](CC(=O)O)C(=O)N[C@H](C(=O)O)[C@@H](C)CC)[C@@H](C)CC)[C@@H](C)O)[C@@H](C)CC` [V] (H-IEILASRTNKEIRDI-OH), the “Inhibition ratio (Inhibition rate of test compound/Inhibition rate of Compound (IV))” value amounted to 0.56.

`CC[C@H](C)[C@H](N)C(=O)N[C@@H](CCCCN)C(=O)N[C@@H](C)C(=O)N[C@@H](Cc1ccccc1)C(=O)N[C@@H](Cc1ccc(O)cc1)C(=O)N[C@@H](CCC(N)=O)C(=O)N[C@@H](CCCCN)C(=O)N[C@@H](CCSC)C(=O)N[C@@H](Cc1ccc(O)cc1)C(=O)NCC(=O)N[C@H](C(=O)N[C@@H](CO)C(=O)N[C@@H](CC(C)C)C(=O)N[C@@H](CS)C(=O)N[C@@H](CCC(N)=O)C(=O)N[C@@H](C)C(=O)O)[C@@H](C)CC` [XII] (H-IKAFYQKMYGISLCQA-OH): the “IC50 compared with that of lipocortin (in words)” value is given as “almost equal to that of lipocortin”. In addition, where the note is “read-out: IC50 (concentration required for inhibiting the PLA2 activity by 50%) (converted)”, the IC50 was 1.07 µM.

As to `CC[C@H](C)[C@H](N)C(=O)N[C@@H](CCCCN)C(=O)N[C@@H](C)C(=O)N[C@@H](C)C(=O)N[C@@H](Cc1ccc(O)cc1)C(=O)N[C@@H](CC(C)C)C(=O)N[C@@H](CCC(N)=O)C(=O)N[C@@H](CCC(=O)O)C(=O)N[C@H](C(=O)NCC(=O)N[C@@H](CCCCN)C(=O)N1CCC[C@H]1C(=O)N[C@@H](CC(C)C)C(=O)N[C@@H](CC(=O)O)C(=O)N[C@@H](CCC(=O)O)C(=O)N[C@H](C(=O)N[C@@H](CC(C)C)C(=O)N[C@@H](CCCCN)C(=O)N[C@@H](CCCCN)C(=O)N[C@@H](C)C(=O)N[C@@H](CC(C)C)C(=O)N[C@H](C(=O)NCC(=O)N[C@@H](Cc1c[nH]cn1)C(=O)N[C@@H](CC(C)C)C(=O)N[C@@H](CCC(=O)O)C(=O)O)[C@@H](C)O)[C@@H](C)O)[C@@H](C)O` [III] (H-IKAAYLQETGKPLDETLKKALTGHLE-OH), the “Inhibition ratio (Inhibition rate of test compound/Inhibition rate of Compound (IV))” value is recorded as 0.20.

For the molecule `CC[C@H](C)[C@H](NC(=O)[C@H](CCCNC(=N)N)NC(=O)[C@@H](NC(=O)[C@H](CC(C)C)NC(=O)[C@H](C)NC(=O)[C@H](CCCCN)NC(=O)[C@H](Cc1c[nH]cn1)NC(=O)[C@H](CCCNC(=N)N)NC(=O)[C@@H](NC(=O)CNC(=O)[C@@H](NC(=O)CN)C(C)C)[C@@H](C)O)[C@@H](C)CC)C(=O)N[C@@H](CCSC)C(=O)N[C@H](C(=O)N[C@@H](CO)C(=O)N[C@@H](CCCNC(=N)N)C(=O)O)C(C)C` [X] (H-GVGTRHKALIRIMVSR-OH; N-terminus and C-terminus assumed), the “Inhibition ratio (Inhibition rate of test compound/Inhibition rate of Compound (IV))” value amounted to 1.19.

Take `CC(C)C[C@H](NC(=O)[C@H](C)NC(=O)[C@H](CCCCN)NC(=O)[C@H](CCCCN)NC(=O)[C@H](CC(C)C)NC(=O)[C@@H](NC(=O)[C@H](CCC(=O)O)NC(=O)[C@H](CC(=O)O)NC(=O)[C@H](CC(C)C)NC(=O)[C@@H]1CCCN1C(=O)[C@@H](N)CCCCN)[C@@H](C)O)C(=O)N[C@H](C(=O)NCC(=O)N[C@@H](Cc1c[nH]cn1)C(=O)N[C@@H](CC(C)C)C(=O)N[C@@H](CCC(=O)O)C(=O)O)[C@@H](C)O` [IV] (H-KPLDETLKKALTGHLE-OH): the “PLA2-inhibiting activity (in words)” value is “medium” and the “Inhibition ratio (Inhibition rate of test compound/Inhibition rate of Compound (IV))” value is recorded as 1.00.

For `CC[C@H](C)[C@H](NC(=O)[C@H](C)NC(=O)[C@@H](NC(=O)[C@H](CC(C)C)NC(=O)[C@H](CS)NC(=O)[C@@H](N)CCCCN)[C@@H](C)O)C(=O)N[C@H](C(=O)N[C@@H](CCCCN)C(=O)N[C@@H](CS)C(=O)N[C@@H](C)C(=O)N[C@H](C(=O)N[C@@H](CO)C(=O)N[C@@H](CCCCN)C(=O)N1CCC[C@H]1C(=O)N[C@@H](C)C(=O)O)[C@@H](C)O)C(C)C` [VIII] (H-KCLTAIVKCATSKPA-OH; N-terminus and C-terminus assumed), the “Inhibition ratio (Inhibition rate of test compound/Inhibition rate of Compound (IV))” value is on record as 1.06.

B1: rLC: lipocortin prepared using Escherichia coli according to the method of Wallner, et al. (protein, UniProt P04083 2-346, looked up)
Annexin A1: AMVSEFLKQAWFIENEEQEYVQTVKSSKGGPGSAVSPYPTFNPSSDVAALHKAIMVKGVDEATIIDILTKRNNAQRQQIKAAYLQETGKPLDETLKKALTGHLEEVVLALLKTPAQFDADELRAAMKGLGTDEDTLIEILASRTNKEIRDINRVYREELKRDLAKDITSDTSGDFRNALLSLAKGDRSEDFGVNEDLADSDARALYEAGERRKGTDVNVFNTILTTRSYPQLRRVFQKYTKYSKHDMNKVLDLELKGDIEKCLTAIVKCATSKPAFFAEKLHQAMKGVGTRHKALIRIMVSRSEIDMNDIKAFYQKMYGISLCQAILDETKGDYEKILVALCGGN
modifications: recombinant, E. coli
B1: the “IC50 (concentration required for inhibiting the PLA2 activity by 50%)” value came out at 1.5 µg/mL.

The values are drawn from patent US4895931A, “Phospholipase A2 -inhibiting peptides” (Kyowa Hakko Kogyo Co., Ltd., priority 1988, dated 1990).
